Reference: patent US20090176817A1, “Method of Treatment of Diarrhea-Predominant Irritable Bowel Syndrome in a Subject” (priority 2005, published 2009)
pIC50: −log10 of the molar value.

Legend:
CYP3A5 = conditions: hepatocytes
[1] = tested on: diarrhea-predominant IBS subjects; assay: Study S241.3.006: interruption of activities assessment; format: in vivo, human; conditions: for Percentage of Subjects Who Worsened from Baseline: Interruption of Activities: S241.3.006, 2 mg TID, observed value
Source text: Studies S24 1.3.OO6, S24 1.3.0 1 1, and S24 1.3.009 used the following efficacy measurements: • The subjects answered the following three questions with “yes” or “no” using a phone diary at the end of each week: • a) During the last week, did you experience adequate relief of your IBS symptoms, such as abdominal pain, abdominal discomfort, abnormal bowel habits? • b) During the last week, did you experience adequate relief of your abdominal pain and/or discomfort? • c) During the last week, did you experience adequate relief of your abnormal bowel habits? • The subjects rated the following symptoms using the phone diary at the end of each day: • abdominal pain/discomfort (five-point scale); • stool consistency (seven-point Bristol Stool Scale); • stool frequency (number of bowel movements each day); • urgency (five-point scale); • straining (yes or no); • feeling of incomplete defecation (yes or no); • bloating or feeling of abdominal distension (five-point scale). • In Studies S241 A006 and S241.3.009, subjects completed the IBS-QOL Survey at Baseline (Day 1) and at the end of treatment. In Study S24 1.3.0 1 1, subjects completed the IBS-QOL Survey at Baseline (Day 1), at the end of the three-month treatment period, and at the end of rerandomized treatment.
Other secondary efficacy parameters for all three studies included: • Responder rate for the weekly diary questions on adequate relief at each month, where a responder for a month (monthly responder) was defined as a subject who answered the weekly question with “yes” at least twice for that month. The responder rate was the percentage of responders within a treatment group. The all-month responder rate for the weekly diary questions on adequate relief was also evaluated, where an all-month responder was defined as a subject who answered the weekly question with “yes” at least twice for each month. The all-month responder rate was the percentage of all-month responders within a treatment group; • Adequate relief rate for the weekly diary questions was calculated for each subject as the number of weekly assessments with adequate relief (“yes”) divided by the total number of weekly assessments; • Percentage of subjects with adequate relief for the weekly diary questions at each week; • Daily diary questions regarding abdominal pain/discomfort (five-point scale), stool consistency (seven-point scale), stool frequency (number of bowel movements each day), straining (yes or no), urgency (five-point scale), feeling of incomplete evacuation (yes or no), and bloating or feeling of abdominal distention (five-point scale); • QOL data assessed by the IBS-QOL questionnaire; and • Question to determine the interruption of activities.

clinical [2] = conditions: human, in vivo; for AUC: AUC (0-τ)
Procedure: Subjects were treated with a single oral dose of cilansetron 8 mg (tablet) on Day 1, followed by 8 mg TID for 5 days (Days 2-6) and a single 8 mg dose on the morning of Day 7. Young subjects ranged in age from 19-45 years, and elderly from 66-79 years. Serial blood samples were collected up to 24 hours postdose on Days 1 and 7, and cilansetron pharmacokinetic parameters were calculated. Doses on pharmacokinetic sampling days were administered under fasted conditions.
Young subjects ranged in age from 19-45 years, and elderly from 66-79 years. Serial blood samples were collected up to 24 hours postdose on Days 1 and 7, and cilansetron pharmacokinetic parameters were evaluated. Doses on pharmacokinetic sampling days were administered under fasted conditions.

clinical [3] = conditions: human, in vivo, po
Procedure: Two randomized, double-blind, placebo controlled, rising dose, crossover studies evaluated the single-dose pharmacokinetics of oral cilansetron over a 4 mg to 64 mg dose range. In one study, 24 male subjects (aged 21-36 years) received, at intervals of […], single oral doses of 4, 8, and 16 mg cilansetron in ascending order and a randomized placebo. In the other study, 24 male subjects received, at intervals of ≧1 week, single oral doses of 16, 32, and 64 mg cilansetron in ascending order and a randomized placebo. All doses were administered under fasted conditions. […] Renal excretion of cilansetron was negligible across all doses, with undetectable or very low amounts (<1% of the dose) excreted unchanged in urine.
Data for the evaluation of dose proportionality of oral cilansetron is available from three studies which have evaluated the pharmacokinetics of single doses over a 2 mg to 64 mg dose range. Two randomized, double-blind, placebo controlled, rising dose, crossover studies, in 24 male subjects each, evaluated the single dose pharmacokinetics of oral cilansetron (capsules) over a 4-16 mg and 16-64 mg dose range, respectively. In each study, subjects received, at intervals of ≧1 week, single oral doses of cilansetron in ascending order and a randomized placebo. All doses were administered under fasted conditions. A third open-label, randomized, parallel-group study in 36 male and female subjects, evaluated the single dose pharmacokinetics of a cilansetron 2 mg tablet administered under fed conditions. FIG. 16 to FIG. 19 present box plots of cilansetron AUC(0-inf) and Cmax from these three studies (males only), and corresponding dose-normalized values (normalized to a 1 mg dose). […] Table 2.7.2.3.14 presents descriptive statistics of cilansetron dose-normalized AUC and Cmax in these studies, and the results of statistical comparisons between doses.

CYP1A2 = CYP1A2 (Homo sapiens, UniProt P05177); assay: biochemical
Chain of CYP1A2 (P05177 whole entry): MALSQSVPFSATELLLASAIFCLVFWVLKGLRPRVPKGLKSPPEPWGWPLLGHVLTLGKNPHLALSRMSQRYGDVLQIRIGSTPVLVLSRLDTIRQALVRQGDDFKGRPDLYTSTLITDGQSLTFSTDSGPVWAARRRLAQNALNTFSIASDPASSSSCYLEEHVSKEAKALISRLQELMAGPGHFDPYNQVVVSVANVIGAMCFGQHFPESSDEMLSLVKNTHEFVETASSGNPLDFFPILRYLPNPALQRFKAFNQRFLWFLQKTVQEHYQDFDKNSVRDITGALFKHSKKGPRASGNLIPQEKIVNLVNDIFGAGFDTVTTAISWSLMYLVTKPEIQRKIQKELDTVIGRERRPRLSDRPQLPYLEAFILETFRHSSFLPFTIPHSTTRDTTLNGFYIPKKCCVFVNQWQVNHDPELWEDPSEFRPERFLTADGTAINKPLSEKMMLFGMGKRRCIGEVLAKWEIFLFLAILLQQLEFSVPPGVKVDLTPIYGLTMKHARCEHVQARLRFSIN

[4] = both, human, in vivo, 32 mg
Procedure: Two randomized, double-blind, placebo controlled, balanced incomplete block design, crossover studies evaluated the single- and multiple-dose pharmacokinetics of oral cilansetron over a 8 mg to 32 mg dose range. In both studies, subjects were randomized to receive two of three treatments during 2 treatment periods. In one study (12 male and 13 female subjects, aged 23 to 36 years), subjects received 8 mg cilansetron, 16 mg cilansetron, or placebo, while in another study (12 males and 13 females, aged 23 to 41 years), subjects received 16 mg cilansetron, 32 mg cilansetron, or placebo. During each treatment period, subjects received a single dose of their assigned treatment on the first day, followed by a 3-day washout, after which they received the same treatment TID for 5 days.
There was a 5-6 day washout period between treatment periods. Doses on the mornings of pharmacokinetic days were administered under fasted conditions. Serial blood sampling and urine collection was performed up to 12 hours following morning dosing on the first day (single dose) and on the last multiple dosing day of each treatment period, and cilansetron pharmacokinetic parameters were evaluated.
In two randomized, double-blind, placebo controlled, balanced incomplete block design, crossover studies evaluating the single- and multiple-dose pharmacokinetics of oral cilansetron over a 8 mg to 32 mg dose range, subjects were randomized to receive two of three treatments during 2 treatment periods. In Study S.241.1.101; (12 male and 13 female subjects, aged 23 to 36 years), subjects received 8 mg cilansetron, 16 mg cilansetron, or placebo, while in Study S.24 1.1.102; (12 males and 13 females, aged 23 to 41 years), subjects received 16 mg cilansetron, 32 mg cilansetron, or placebo. During each treatment period, subjects received a single dose of their assigned treatment on the first day, followed by a 3-day washout, after which they received the same treatment TID for 5 days. There was a 5-6 day washout period between treatment periods. Doses on the mornings of pharmacokinetic days were administered under fasted conditions. Serial blood sampling and urine collection was performed up to 12 hours following morning dosing on the first day (single dose) and on the last multiple dosing day of each treatment period, and cilansetron pharmacokinetic parameters were evaluated.

serum proteins = assay: in vitro; conditions: both, human, plasma, Plasma protein bound
Procedure: The ex vivo protein binding of cilansetron and its 4-hydroxy metabolites has been measured in serum samples collected in a multiple-dose study in healthy and renally impaired male and female subjects, aged 33-74 years. […] Healthy subjects were matched to renally-impaired subjects with respect to age, weight, gender, and smoking status. All subjects received oral cilansetron 2 mg TID on Days 1 to 5, and a single dose on the morning of Day 6.

CYP2C19 = conditions: hepatocytes
[5] = both, human, in vivo
Procedure: In a single-dose, crossover study conducted to evaluate the potential for a drug-drug interaction between liquid Maalox and cilansetron, 12 male and 12-female subjects (aged 19-39 years) received single doses of cilansetron 16 mg alone and cilansetron 16 mg+Maalox in a crossover fashion under fasted conditions. Blood samples for measurement of plasma cilansetron pharmacokinetics were collected up to 24 hours postdose following each treatment.
The effect of concomitantly administered antacid (liquid Maalox) on the pharmacokinetics of cilansetron has been evaluated in a single-dose, crossover study in 24 healthy, male and female subjects, aged 19 to 39 years. Subjects received the following two treatments during each of the study periods in a crossover fashion: a single oral dose of cilansetron 16 mg tablet (reference treatment); a single oral dose of cilansetron 16 mg tablet+20 mL oral Maalox liquid administered every 4 hours (test treatment; 4 doses of Maalox in total; cilansetron was administered 5 minutes after the first dose of Maalox). Both cilansetron treatments were administered under fasted conditions.

Cc1nccn1C[C@H]1CCc2c(c3cccc4c3n2CCC4)C1=O [Cilansetron, (R)-(−)-4,5,6,8,9,10-hexahydro-10-[(2-methyl-1H-imidazol-1-yl)methyl]-11H-pyrido-[3,2,1-jk]-carbazol-11-one]
CYP3A5 mRNA (CYP3A5): doubled
Subjects “not at all or rarely” bothered by IBS symptoms ([1]; Endpoint): 42%
Subjects worsened from Baseline, interruption of activities ([1]; Month 1): 8%
Percentage of Subjects Who Worsened from Baseline: Interruption of Activities ([1]; Month 1): 8%
Percentage of Subjects Who Worsened from Baseline: Interruption of Activities ([1]; Month 2): 5%
Percentage of Subjects Who Worsened from Baseline: Interruption of Activities ([1]; Month 3): 4%
AUC(0-inf) (clinical [2]; female, 8 mg): 289 ng·h/mL
AUC (clinical [2]; female, 8 mg): 247 ng·h/mL
AUC(0-inf) (clinical [2]; female): 178 ng·h/mL
AUC (clinical [2]; female): 263 ng·h/mL
Cmax (clinical [2]; female): 95.1 ng/mL
Tmax (clinical [2]; female): 0.88 h
AUC(0-inf) (clinical [2]; male): 228 ng·h/mL
AUC (clinical [2]; male): 196 ng·h/mL
Cmax (clinical [2]; male): 58.8 ng/mL
Tmax (clinical [2]; male): 1.31 h
Vd/F (clinical [2]; male, Vz/F): 243 L
CL/F (clinical [3]; 32 mg): 2487 (79) mL/min
CL/F (clinical [3]; 64 mg): 1910 (60) mL/min
DN-AUC(0-inf) ratio 32 mg/16 mg (clinical [3]; male): 127%
DN-AUC(0-inf) ratio 64 mg/16 mg (clinical [3]; male): 158%
DN-AUC(0-inf) ratio 64 mg/32 mg (clinical [3]; male): 125%
DN-AUC(0-last) ratio 32 mg/16 mg (clinical [3]; male): 132%
DN-AUC(0-last) ratio 64 mg/16 mg (clinical [3]; male): 168%
DN-AUC(0-last) ratio 64 mg/32 mg (clinical [3]; male): 127%
DN-Cmax ratio 32 mg/16 mg (clinical [3]; male): 127%
DN-Cmax ratio 64 mg/16 mg (clinical [3]; male): 164%
DN-Cmax ratio 64 mg/32 mg (clinical [3]; male): 129%
CL renal (clinical [3]; male, 16 mg): 3.39 mL/min
Tmax (clinical [3]; male, 16 mg): 1 h
AUC(0-inf) (clinical [3]; male, 32 mg): 330 ng·h/mL
AUC(0-t) (clinical [3]; male, 32 mg): 324 ng·h/mL
CL renal (clinical [3]; male, 32 mg): 5 mL/min
Cmax (clinical [3]; male, 32 mg): 143 ng/mL
Tmax (clinical [3]; male, 32 mg): 1 h
Vd/F (clinical [3]; male, 32 mg): 269 L
half-life (clinical [3]; male, 32 mg): 1.28 h
AUC(0-inf) (clinical [3]; male, 64 mg): 813 ng·h/mL
AUC(0-t) (clinical [3]; male, 64 mg): 807 ng·h/mL
CL renal (clinical [3]; male, 64 mg): 4.5 mL/min
Cmax (clinical [3]; male, 64 mg): 349 ng/mL
Tmax (clinical [3]; male, 64 mg): 1 h
Vd/F (clinical [3]; male, 64 mg): 204 L
half-life (clinical [3]; male, 64 mg): 1.3 h
pIC50 (CYP1A2): 4.22
DN-AUC [4]: 14.1 (61) ng · h/mL
fraction unbound (serum proteins): ~0.04
Increase of CYP2C19 (CYP2C19): about half of that caused by phenobarbital
AUC (0-inf) Ratio (Treatment B/A) [5]: 100%
AUC (0-last) Ratio (Treatment B/A) [5]: 100%
Cmax Ratio (Treatment B/A) [5]: 87%
AUC and Cmax lower in males than in females ([5]; 16 mg): 56%
Mean Cmax decrease with Maalox ([5]; 16 mg): 13%
Mean half-life lower in males than in females ([5]; 16 mg): 41%
